Data from US9861104B2, “Method for producing an aqueous suspension concentrate formulation of a pyripyropene insecticide” (BASF SE, priority 2012, dated 2018).

Experiment: Conversion of the aqueous slurry into form B, followed by XRPD
Assay type: physicochemical
Conditions: 30 parts Insecticide A / 70 parts water, stirred
Description: The recorded 2θ values were used to calculate the stated interplanar spacings d. The intensity of the peaks (y-axis: linear intensity counts) is plotted versus the 2θ angle (x-axis in degrees 2θ). The formulation was prepared as follows: • (a) 30 parts by weight of Insecticide A, in the form of a powder, and 70 parts by weight of water were mixed in a vessel to obtain an aqueous slurry. The particle diameter of the particles was in the range 30-800 μm. […] The temperature of grinding head was controlled at 5° C. The milling was stopped when an average particle size of 1.5-2 μm (volume average) had been achieved (measured with Malvern Mastersizer 2000). To the thus obtained suspension the remaining antifoaming agent, the preservative and the thickener and water were added to with stirring to ensure homogeneous distribution of components. The amount of water was chosen that the final concentration of the pyripyropene derivative in the formulation was 100 g/l.

Structure (SMILES): C[C@]1(COC(=O)C2CC2)[C@@H]2C[C@H](O)[C@@]3(C)Oc4cc(-c5cccnc5)oc(=O)c4[C@H](O)[C@@H]3[C@@]2(C)CC[C@@H]1OC(=O)C1CC1 [Insecticide A]
- Conversion time (conversion of at least 90% into form B) (20° C.): <190 h
- Conversion time (conversion of at least 90% into form B) (40° C.): <48 h
- Conversion time (conversion of at least 90% into form B) (60° C.): 12 h
